We go through 8 molecules from ChEMBL document CHEMBL1269000, “Synthesis and biological evaluation of [D-lysine]8cyclosporin A analogs as potential anti-HCV agents” (Bioorg Med Chem Lett, 2010).

Molecules are shown by their SMILES. Bounds are passed on as bounds.

Data set [1] addresses Peptidyl-prolyl cis-trans isomerase A (Homo sapiens, UniProt P62937). The data set is described as follows: Binding affinity to cyclophilin A by ELISA.
Data set [2] is described as follows: Cytotoxicity against human HuH7 cells assessed as release of lactate dehydrogenase. Format: cell-based, Huh-7. The note with it: for IC50: Homo sapiens, Huh-7; for IC90: human, HuH7 cells.
A further data set deals with Jurkat. The data set can be described thus: Immunosuppressive activity against human Jurkat cells assessed as inhibition of phytohemagglutinin-M/phorbol myristate acetate-induced IL2 production. It is filed as cell-based.
Data set [3] concerns the target Peptidyl-prolyl cis-trans isomerase B (Homo sapiens, UniProt P23284). The data set can be described thus: Binding affinity to cyclophilin B by ELISA.
In the next data set the test system is Hepatitis C virus. The data set can be described thus: Antiviral activity against HCV after 72 hrs by stable luciferase reporter gene assay. It is filed as functional, organism-based, Hepacivirus hominis.

Chain of Peptidyl-prolyl cis-trans isomerase B (P23284 whole entry): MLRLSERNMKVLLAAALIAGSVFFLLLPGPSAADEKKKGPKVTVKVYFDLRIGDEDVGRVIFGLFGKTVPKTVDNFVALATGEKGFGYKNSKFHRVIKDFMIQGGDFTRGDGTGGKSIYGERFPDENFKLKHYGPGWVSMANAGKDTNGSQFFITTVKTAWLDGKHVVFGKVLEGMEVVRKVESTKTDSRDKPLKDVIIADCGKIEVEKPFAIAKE
Chain of Peptidyl-prolyl cis-trans isomerase A (P62937 whole entry): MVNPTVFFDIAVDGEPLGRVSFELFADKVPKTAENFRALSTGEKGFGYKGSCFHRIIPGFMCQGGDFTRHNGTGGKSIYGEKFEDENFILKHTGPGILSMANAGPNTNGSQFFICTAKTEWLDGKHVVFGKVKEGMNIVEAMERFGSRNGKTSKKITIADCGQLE

`C/C=C/C[C@@H](C)[C@@H](O)[C@H]1C(=O)N[C@@H](CC)C(=O)N(C)CC(=O)N(C)[C@@H](CC(C)C)C(=O)N[C@@H](C(C)C)C(=O)N(C)[C@@H](CC(C)C)C(=O)N[C@@H](C)C(=O)N[C@H](CN(C)C)C(=O)N(C)[C@@H](CC(C)C)C(=O)N(C)[C@@H](CC(C)C)C(=O)N(C)[C@@H](C(C)C)C(=O)N1C`: the values for the IC50 in data set [1], in data set [2] and in data set [3] were 0.0229 µM, 2.05 µM and 0.0252 µM, respectively. In addition, the IC90 in data set [2] is greater than 10 µM. The EC50 with Jurkat is 0.02 µM; in the data set with Hepatitis C virus it was 0.19 µM. In the data set with Hepatitis C virus, this molecule registered an EC90 of 0.67 µM.

For `C/C=C/C[C@@H](C)[C@@H](O)[C@H]1C(=O)N[C@@H](CC)C(=O)N(C)CC(=O)N(C)[C@@H](CC(C)C)C(=O)N[C@@H](C(C)C)C(=O)N(C)[C@@H](CC(C)C)C(=O)N[C@@H](C)C(=O)N[C@H](CCN(C)C)C(=O)N(C)[C@@H](CC(C)C)C(=O)N(C)[C@@H](CC(C)C)C(=O)N(C)[C@@H](C(C)C)C(=O)N1C`, the IC50 in data set [1] is 0.046 µM; in data set [2], 3.27 µM; in data set [3] it was 0.0595 µM. For the same molecule, the IC90 in data set [2] was greater than 10 µM. Besides, the EC50 in the data set on Jurkat was 0.024 µM; with Hepatitis C virus it was 0.17 µM. For the same molecule, the EC90 in the data set on Hepatitis C virus amounted to 0.3 µM.

Take `C/C=C/C[C@@H](C)[C@@H](O)[C@H]1C(=O)N[C@@H](CC)C(=O)N(C)CC(=O)N(C)[C@@H](CC(C)C)C(=O)N[C@@H](C(C)C)C(=O)N(C)[C@@H](CC(C)C)C(=O)N[C@@H](C)C(=O)N[C@H](CCCN(C)C)C(=O)N(C)[C@@H](CC(C)C)C(=O)N(C)[C@@H](CC(C)C)C(=O)N(C)[C@@H](C(C)C)C(=O)N1C`: the IC50 in data set [1] was found to be 0.0352 µM; in data set [2] it was 2.15 µM; in data set [3], 0.0289 µM. For the same molecule, the IC90 in data set [2] came out at 8.73 µM. For the same molecule, the EC50 was found to be 0.039 µM with Jurkat and 0.14 µM in the data set with Hepatitis C virus. This molecule also displayed a concentration for an effect of 90% (EC90) in the data set on Hepatitis C virus of 0.38 µM.

As to `C/C=C/C[C@@H](C)[C@@H](O)[C@H]1C(=O)N[C@@H](CC)C(=O)N(C)CC(=O)N(C)[C@@H](CC(C)C)C(=O)N[C@@H](C(C)C)C(=O)N(C)[C@@H](CC(C)C)C(=O)N[C@@H](C)C(=O)N[C@H](CCCCN(C)C)C(=O)N(C)[C@@H](CC(C)C)C(=O)N(C)[C@@H](CC(C)C)C(=O)N(C)[C@@H](C(C)C)C(=O)N1C`, the IC50 in data set [1] is 0.014 µM; in data set [2], 2.81 µM; in data set [3] it was 0.0971 µM. Also, the IC90 in data set [2] was greater than 10 µM. For the same molecule, the EC50 was determined as 0.332 µM in the data set with Jurkat and 0.14 µM in the data set on Hepatitis C virus. It took 0.3 µM to reach the 90% level with Hepatitis C virus (EC90).

Turning to `C/C=C/C[C@@H](C)[C@@H](O)[C@H]1C(=O)N[C@@H](CC)C(=O)N(C)CC(=O)N(C)[C@@H](CC(C)C)C(=O)N[C@@H](C(C)C)C(=O)N(C)[C@@H](CC(C)C)C(=O)N[C@@H](C)C(=O)N[C@H](CN(CC)CC)C(=O)N(C)[C@@H](CC(C)C)C(=O)N(C)[C@@H](CC(C)C)C(=O)N(C)[C@@H](C(C)C)C(=O)N1C`, the IC50 in data set [1] was 0.14 µM; in data set [2], 2.68 µM; in data set [3], 0.158 µM. Also, the IC90 in data set [2] is greater than 10 µM. In addition, the EC50 in the data set on Jurkat was determined as 0.055 µM; with Hepatitis C virus it was 0.38 µM. The molecule further displayed an EC90 with Hepatitis C virus of 0.95 µM.

Regarding `C/C=C/C[C@@H](C)[C@@H](O)[C@H]1C(=O)N[C@@H](CC)C(=O)N(C)CC(=O)N(C)[C@@H](CC(C)C)C(=O)N[C@@H](C(C)C)C(=O)N(C)[C@@H](CC(C)C)C(=O)N[C@@H](C)C(=O)N[C@H](CCN(CC)CC)C(=O)N(C)[C@@H](CC(C)C)C(=O)N(C)[C@@H](CC(C)C)C(=O)N(C)[C@@H](C(C)C)C(=O)N1C`, the figures for the IC50 in data set [1], in data set [2] and in data set [3] were 0.0652 µM, 1.5 µM and 0.0559 µM, respectively. In addition, the IC90 in data set [2] was 8.62 µM. Besides, the EC50 in the data set on Jurkat came out at 0.114 µM; with Hepatitis C virus, 0.17 µM. The molecule further gave a concentration for an effect of 90% (EC90) with Hepatitis C virus of 0.35 µM.

For the molecule `C/C=C/C[C@@H](C)[C@@H](O)[C@H]1C(=O)N[C@@H](CC)C(=O)N(C)CC(=O)N(C)[C@@H](CC(C)C)C(=O)N[C@@H](C(C)C)C(=O)N(C)[C@@H](CC(C)C)C(=O)N[C@@H](C)C(=O)N[C@H](CCCN(CC)CC)C(=O)N(C)[C@@H](CC(C)C)C(=O)N(C)[C@@H](CC(C)C)C(=O)N(C)[C@@H](C(C)C)C(=O)N1C`, the figures for the IC50 in data set [1], in data set [2] and in data set [3] were 0.0214 µM, 1.82 µM and 0.0172 µM, respectively. Moreover, the IC90 in data set [2] was determined as 8.91 µM. The EC50 was found to be 0.134 µM with Jurkat and 0.15 µM in the data set with Hepatitis C virus. Besides, the EC90 with Hepatitis C virus worked out at 0.37 µM.

As to `C/C=C/C[C@@H](C)[C@@H](O)[C@H]1C(=O)N[C@@H](CC)C(=O)N(C)CC(=O)N(C)[C@@H](CC(C)C)C(=O)N[C@@H](C(C)C)C(=O)N(C)[C@@H](CC(C)C)C(=O)N[C@@H](C)C(=O)N[C@H](CCCCN(CC)CC)C(=O)N(C)[C@@H](CC(C)C)C(=O)N(C)[C@@H](CC(C)C)C(=O)N(C)[C@@H](C(C)C)C(=O)N1C`, the IC50 was found to be 0.0266 µM in data set [1], 2.24 µM in data set [2] and 0.0198 µM in data set [3]. The IC90 in data set [2] worked out at 7.9 µM. In addition, the EC50 with Jurkat stood at 2.17 µM; in the data set on Hepatitis C virus, 0.18 µM. The same molecule gave an EC90 in the data set on Hepatitis C virus of 0.53 µM.
